Data from patent publication US12655142B2 (Merck Patent GmbH, priority 2019, dated 2026).

Assays:
[1] = molecular target: T1, GIST430/654 cell line expressing mutated constitutively active cKIT receptor tyrosine kinase (Δ560-576 deletion and V654A point mutation) (Homo sapiens, UniProt P10721, DEL560-576/V654A); test: Cellular cKIT autophosphorylation (phospho-Y307-cKIT, Luminex bead assay) in GIST430/654 cells; type: cell-based; settings: compounds 45 min, read-out: GIST 430/654 IC50
T1 construct: endogenous in cells; host or cells: GIST430/654 cells
T1 sequence (P10721 with tags, fused parts or gaps DEL560-576/V654A): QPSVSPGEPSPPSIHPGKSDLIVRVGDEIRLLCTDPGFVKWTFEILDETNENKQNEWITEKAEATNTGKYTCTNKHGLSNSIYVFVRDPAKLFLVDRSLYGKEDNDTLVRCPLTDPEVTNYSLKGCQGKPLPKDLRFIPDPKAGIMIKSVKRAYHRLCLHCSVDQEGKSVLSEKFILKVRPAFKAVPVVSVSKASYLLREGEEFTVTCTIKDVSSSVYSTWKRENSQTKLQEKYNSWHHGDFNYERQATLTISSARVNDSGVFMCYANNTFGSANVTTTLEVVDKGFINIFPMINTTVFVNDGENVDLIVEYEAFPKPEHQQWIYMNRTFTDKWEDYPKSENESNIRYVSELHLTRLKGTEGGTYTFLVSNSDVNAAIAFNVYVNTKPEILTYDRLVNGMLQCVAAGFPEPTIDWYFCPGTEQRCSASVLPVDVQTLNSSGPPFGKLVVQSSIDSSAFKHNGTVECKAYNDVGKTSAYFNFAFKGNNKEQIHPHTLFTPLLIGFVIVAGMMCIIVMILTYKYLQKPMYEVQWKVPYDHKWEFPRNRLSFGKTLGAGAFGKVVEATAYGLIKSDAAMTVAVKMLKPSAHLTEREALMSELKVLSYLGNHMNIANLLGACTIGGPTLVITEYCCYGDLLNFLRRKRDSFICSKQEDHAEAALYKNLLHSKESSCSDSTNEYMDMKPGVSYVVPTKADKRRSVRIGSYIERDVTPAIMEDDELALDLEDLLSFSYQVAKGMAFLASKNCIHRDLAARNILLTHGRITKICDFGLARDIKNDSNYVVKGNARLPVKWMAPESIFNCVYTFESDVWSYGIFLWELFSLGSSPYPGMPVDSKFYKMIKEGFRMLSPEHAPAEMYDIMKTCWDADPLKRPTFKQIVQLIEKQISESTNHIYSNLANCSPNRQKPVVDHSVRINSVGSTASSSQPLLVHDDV
Experimental: Assay Principle for Cellular Testing of cKIT Mutant Inhibitors
The GIST430 cell line expressing constitutive active cKIT receptor tyrosine kinase (Δ560-576 deletion) and the Imatinib resistant GIST430/654 cell line expressing mutated constitutively active cKIT receptor tyrosine kinase (Δ560-576 deletion and V654A point mutation) were employed for assessing cellular potency of compounds. Cellular activity of mutant cKIT was determined by the degree of cKIT autophosphorylation at tyrosine 307 using a Luminex-based bead assay. GIST430 cells were plated with 22,000 cells per well of a 96-well plate in 100 μl medium (85% IMDM/15% FCS) and GIST430/654 cells were plated with 25,000 cells per well of a 96-well plate in 100 μl medium (85% IMDM/15% FCS supplemented with 100 nM Imatinib). At the following day compounds were added in a serial dilution for 45 min. Then, cells were lysed with 90 μl lysis buffer (20 mM Hepes pH 7.5, 200 mM NaCl, 1.5 mM MgCl2×6H2O, 0.4 mM EDTA, 1% Triton-X-100, 1% Phosphatase-Inhibitor II, 20 mM β-Glycerolphosphat, 0.1% Protease-Inhibitor Cocktail III, 0.01% Benzonase) and lysates were cleared by centrifugation through a 96-well filter plate (0.65 μm). Samples were incubated with Luminex-beads which were coupled with an anti-total cKIT antibody overnight at 4° C. under gentle agitation. For detection of phospho-Y307-cKIT a phosphospecific antibody and a species-specific PE-labeled secondary antibody were added. The amount of phospho-Y307-cKIT was determined in a Luminex 200 instrument measuring 100 events per well within 60 seconds.
Counts from samples treated with compounds were calculated as percent of control from solvent treated (0.3% DMSO) samples. Dose-response curves were fitted and IC50 values were determined using Genedata Screener software.

c-Kit(V654A) = molecular target: T2, c-Kit(V654A) (Homo sapiens, UniProt P10721, V654A); test: c-Kit(V654A) assay (33P-ATP filter binding kinase assay); type: biochemical; settings: recombinant human c-Kit aa 544-end V654A, ATP 200 μM
T2 construct: recombinant human c-Kit, amino acids 544-end containing the V654A mutation; GST (N)
T2 sequence (P10721 544-976 V654A): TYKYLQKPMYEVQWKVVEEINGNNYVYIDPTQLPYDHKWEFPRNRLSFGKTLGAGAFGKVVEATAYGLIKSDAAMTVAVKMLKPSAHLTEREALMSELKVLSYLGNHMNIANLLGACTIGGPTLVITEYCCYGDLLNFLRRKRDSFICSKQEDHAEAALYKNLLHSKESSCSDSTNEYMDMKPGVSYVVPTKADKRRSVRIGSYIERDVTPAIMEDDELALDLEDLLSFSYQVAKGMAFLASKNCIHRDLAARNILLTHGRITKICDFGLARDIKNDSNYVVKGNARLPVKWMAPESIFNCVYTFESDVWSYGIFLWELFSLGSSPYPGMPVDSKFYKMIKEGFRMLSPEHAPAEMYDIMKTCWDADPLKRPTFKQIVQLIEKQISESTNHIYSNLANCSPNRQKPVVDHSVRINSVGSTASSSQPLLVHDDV
Experimental: c-Kit(V654A) (N-terminal GST-tagged, recombinant human c-Kit, amino acids 544-end containing the V654A mutation) is incubated with 8 mM MOPS pH 7.0, 0.2 mM EDTA, 250 μM GGMEDIYEFMGGKKK, 10 mM MgAcetate and [gamma-33P-ATP] (specific activity approx. 500 cpm/pmol, concentration 200 μM). The reaction is initiated by the addition of the MgATP mix. After incubation for 40 minutes at room temperature, the reaction is stopped by the addition of 3% phosphoric acid solution. 10 μL of the reaction is then spotted onto a P30 filtermat and washed three times for 5 minutes in 75 mM phosphoric acid and once in methanol prior to drying and scintillation counting.

IC50 [1] [nM]	IC50 (c-Kit(V654A)) [nM]	SMILES
62	6.4	Cn1cc(-c2ccc(CNc3cc(-c4cnc5cc(OCCCN6CC7(COC7)C6)ccn45)ncn3)cc2)cn1 [A238, [4-(1-methyl-1H-pyrazol-4-yl)-benzyl]-(6-{7-[3-(2-oxa-6-aza-spiro[3.3]hept-6-yl)-propoxy]-imidazo[1,2-a]pyridin-3-yl}-pyrimidin-4-yl)-amine]
540	72	Cn1cc(-c2ccc(CNc3cc(-c4cnc5cc(OCc6ccccc6)ccn45)ncn3)cc2)cn1 [A72, 6-[7-(benzyloxy)imidazo[1,2-a]pyridin-3-yl]-N-{[4-(1-methyl-1H-pyrazol-4-yl)phenyl]methyl}pyrimidin-4-amine]
260	26	CN1CCO[C@H](COc2ccn3c(-c4cc(NCc5ccc(-c6cnn(C)n6)cc5)ncn4)cnc3c2)C1 [A122, {6-[7-((S)-4-methyl-morpholin-2-ylmethoxy)-imidazo[1,2-a]pyridin-3-yl]-pyrimidin-4-yl}-[4-(2-methyl-2H-[1,2,3]triazol-4-yl)-benzyl]-amine]
710	55	COc1ccn2c(-c3cc(NCc4ccc(N5CC6CCC(C5)O6)cc4)ncn3)cnc2c1 [A38, [6-(7-methoxy-imidazo[1,2-a]pyridin-3-yl)-pyrimidin-4-yl]-[4-(8-oxa-3-aza-bicyclo[3.2.1]oct-3-yl)-benzyl]-amine]
210	2	CN(C)CCCOc1ccn2c(-c3cc(NCc4ccc(-c5cnn(C)n5)cc4)ncn3)cnc2c1 [A135, {6-[7-(3-dimethylamino-propoxy)-imidazo[1,2-a]pyridin-3-yl]-pyrimidin-4-yl}-[4-(2-methyl-2H-[1,2,3]triazol-4-yl)-benzyl]-amine]
150	22	Cn1cc(-c2ccc(CNc3cc(-c4cnc5cc(OCCCN6CCC(F)(F)C6)ccn45)ncn3)cc2)cn1 [A101, 6-{7-[3-(3,3-difluoropyrrolidin-1-yl)propoxy]imidazo[1,2-a]pyridin-3-yl}-N-{[4-(1-methyl-1H-pyrazol-4-yl)phenyl]methyl}pyrimidin-4-amine]
2600	5.5	COc1ccn2c(-c3cc(NCc4ccc(-c5ccccc5)cc4)ncn3)cnc2c1 [A3, N-({[1,1′-biphenyl]-4-yl}methyl)-6-{7-methoxyimidazo[1,2-a]pyridin-3-yl}pyrimidin-4-amine]
150	5.7	COc1ccn2c(-c3cc(NCc4ccc(-c5cc(C)no5)cc4)ncn3)cnc2c1 [A52, [6-(7-methoxy-imidazo[1,2-a]pyridin-3-yl)-pyrimidin-4-yl]-[4-(3-methyl-isoxazol-5-yl)-benzyl]-amine]
120	16	COc1ccn2c(-c3cc(NCc4ccc(-c5cnn(C6COC6)c5)cc4)ncn3)cnc2c1 [A33, 6-{7-methoxyimidazo[1,2-a]pyridin-3-yl}-N-({4-[1-(oxetan-3-yl)-1H-pyrazol-4-yl]phenyl}methyl)pyrimidin-4-amine]
110	5	CN1CCN(CCOc2ccn3c(-c4cc(OCc5ccc(-c6cnn(C)c6)cc5)ncn4)cnc3c2)CC1 [A86, 7-[2-(4-methyl-piperazin-1-yl)-ethoxy]-3-{6-[4-(1-methyl-1H-pyrazol-4-yl)-benzyloxy]-pyrimidin-4-yl}-imidazo[1,2-a]pyridine]
45	5.6	CCN(CC)CCCOc1ccn2c(-c3cc(NCc4ccc(-c5cnn(C)c5)cc4)ncn3)cnc2c1 [A137, 6-{7-[3-(diethylamino)propoxy]imidazo[1,2-a]pyridin-3-yl}-N-{[4-(1-methyl-1H-pyrazol-4-yl)phenyl]methyl}pyrimidin-4-amine]
31	2.9	CN1CCN(CCCOc2ccn3c(-c4cc(NCc5ccc(-c6cnn(C)n6)cc5)ncn4)cnc3c2)CC1 [A96, N-{[4-(2-methyl-2H-1,2,3-triazol-4-yl)phenyl]methyl}-6-{7-[3-(4-methylpiperazin-1-yl)propoxy]imidazo[1,2-a]pyridin-3-yl}pyrimidin-4-amine]
56	5.8	Cn1cc(-c2ccc(CNc3cc(-c4cnc5cc(OCCC6CCN(C7COC7)C6)ccn45)ncn3)cc2)cn1 (stereo not drawn) [A123, [4-(1-methyl-1H-pyrazol-4-yl)-benzyl]-(6-{7-[2-(1-oxetan-3-yl-pyrrolidin-3-yl)-ethoxy]-imidazo[1,2-a]pyridin-3-yl}-pyrimidin-4-yl)-amine]
89	12	Cn1cc(-c2ccc(CNc3cc(-c4cnc5cc(OCCCN6CCOCC6=O)ccn45)ncn3)cc2)cn1 [A88, 4-[3-({3-[6-({[4-(1-methyl-1H-pyrazol-4-yl)phenyl]methyl}amino)pyrimidin-4-yl]imidazo[1,2-a]pyridin-7-yl}oxy)propyl]morpholin-3-one]
190	10	COc1ccn2c(-c3cc(NCc4ccc(-c5nc(C)no5)cc4)ncn3)cnc2c1 [A47, 6-{7-methoxyimidazo[1,2-a]pyridin-3-yl}-N-{[4-(3-methyl-1,2,4-oxadiazol-5-yl)phenyl]methyl}pyrimidin-4-amine]
78	9.5	Cn1cc(-c2ccc(CNc3cc(-c4cnc5cc(OCCN6C[C@@H](F)[C@@H](F)C6)ccn45)ncn3)cc2)cn1 [A209, (6-{7-[2-((3S,4R)-3,4-difluoro-pyrrolidin-1-yl)-ethoxy]-imidazo[1,2-a]pyridin-3-yl}-pyrimidin-4-yl)-[4-(1-methyl-1H-pyrazol-4-yl)-benzyl]-amine]
120	13	Cn1cc(-c2ccc(CNc3cc(-c4cnc5cc(OCC(C)(C)N6CCOCC6)ccn45)ncn3)cc2)cn1 [A107, {6-[7-(2-methyl-2-morpholin-4-yl-propoxy)-imidazo[1,2-a]pyridin-3-yl]-pyrimidin-4-yl}-[4-(1-methyl-1H-pyrazol-4-yl)-benzyl]-amine]
150	10	Cn1cc(-c2ccc(CNc3cc(-c4cnc5cc(OCCN6CCCC(F)(F)C6)ccn45)ncn3)cc2)cn1 [A136, 6-{7-[2-(3,3-difluoropiperidin-1-yl)ethoxy]imidazo[1,2-a]pyridin-3-yl}-N-{[4-(1-methyl-1H-pyrazol-4-yl)phenyl]methyl}pyrimidin-4-amine]
260	10	Cn1cc(-c2ccc(COc3cc(-c4cnc5cc(OCCN6CCC(F)(F)C6)ccn45)ncn3)cc2)cn1 [A90, 7-[2-(3,3-difluoro-pyrrolidin-1-yl)-ethoxy]-3-{6-[4-(1-methyl-1H-pyrazol-4-yl)-benzyloxy]-pyrimidin-4-yl}-imidazo[1,2-a]pyridine]
120	9.5	Cn1cc(-c2ccc(CNc3cc(-c4cnc5cc(OCCN6CC7CC(C6)O7)ccn45)ncn3)cc2)cn1 [A103, [4-(1-methyl-1H-pyrazol-4-yl)-benzyl]-(6-{7-[2-(6-oxa-3-aza-bicyclo[3.1.1]hept-3-yl)-ethoxy]-imidazo[1,2-a]pyridin-3-yl}-pyrimidin-4-yl)-amine]
650	22	Cn1cc(-c2ccc(CNc3cc(-c4cnc5cc(OC6CCOCC6)ccn45)ncn3)cc2)cn1 [A55, [4-(1-methyl-1H-pyrazol-4-yl)-benzyl]-{6-[7-(tetrahydro-pyran-4-yloxy)-imidazo[1,2-a]pyridin-3-yl]-pyrimidin-4-yl}-amine]
970	27	Cn1cc(-c2ccc(CNc3cc(-c4cnc5cc([N+](=O)[O-])ccn45)ncn3)cc2)cn1 [A81, N-{[4-(1-methyl-1H-pyrazol-4-yl)phenyl]methyl}-6-{7-nitroimidazo[1,2-a]pyridin-3-yl}pyrimidin-4-amine]
650	55	COc1ccn2c(-c3cc(NCc4ccc(-c5cn(C)cn5)cc4)ncn3)cnc2c1 [A20, [6-(7-methoxy-imidazo[1,2-a]pyridin-3-yl)-pyrimidin-4-yl]-[4-(1-methyl-1H-imidazol-4-yl)-benzyl]-amine]
340	6.3	COc1ccn2c(-c3cc(NCc4ccc(-c5ncc(C)o5)cc4)ncn3)cnc2c1 [A53, [6-(7-methoxy-imidazo[1,2-a]pyridin-3-yl)-pyrimidin-4-yl]-[4-(5-methyl-oxazol-2-yl)-benzyl]-amine]
